Source: PubChem BioAssay AID330 (DTP/NCI, 2004)
Several values for one entry are separate records, joined by “and”; a condition that tells them apart may be missing. Identical values can stand only once. Inconclusive results and toxic doses are left out. The calls were made as follows: active = survival T/C of 150% or more; inactive = T/C below 125% in these data.

Test system: P388 leukemia ip, CD2F1 mice, survival T/C
Assay: NCI In Vivo Anticancer Drug Screen. Data for tumor model P388 Leukemia (intraperitoneal) in CD2F1 (CDF1) mice
Conditions: endpoint: median survival time, higher = longer survival
Procedure, shortened: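 Mice carrying the transplanted tumor received test compound or vehicle. Survival was recorded in each group, and the value is the treated-group measurement divided by that of the vehicle-treated control group.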

[1] = dose: 25.0 mg/kg/injection, schedule: Q01DX009 (ip), vehicle: saline with Tween-80
[2] = dose: 50.0 mg/kg/injection, schedule: Q01DX009 (ip), vehicle: saline with Tween-80
[3] = dose: 100.0 mg/kg/injection, schedule: Q01DX009 (ip), vehicle: saline with Tween-80
[4] = dose: 60.0 mg/kg/injection, schedule: Q01DX005 (ip), vehicle: saline
[5] = dose: 120.0 mg/kg/injection, schedule: Q01DX005 (ip), vehicle: saline
[6] = dose: 240.0 mg/kg/injection, schedule: Q01DX005 (ip), vehicle: saline
[7] = dose: 60.0 mg/kg/injection, schedule: Q01DX005 (ip), vehicle: saline with Tween-80
[8] = dose: 120.0 mg/kg/injection, schedule: Q01DX005 (ip), vehicle: saline with Tween-80
[9] = dose: 240.0 mg/kg/injection, schedule: Q01DX005 (ip), vehicle: saline with Tween-80
[10] = dose: 200.0 mg/kg/injection, schedule: Q01DX009 (ip), vehicle: saline with Tween-80
[11] = dose: 50.0 mg/kg/injection, schedule: Q01DX009 (ip), vehicle: Klucel (hydroxypropylcellulose) (HPC)
[12] = dose: 100.0 mg/kg/injection, schedule: Q01DX009 (ip), vehicle: Klucel (hydroxypropylcellulose) (HPC)
[13] = dose: 50.0 mg/kg/injection, schedule: Q01DX005 (ip), vehicle: saline with Tween-80
[14] = dose: 200.0 mg/kg/injection, schedule: Q01DX009 (ip), vehicle: Klucel (hydroxypropylcellulose) (HPC)
[15] = dose: 100.0 mg/kg/injection, schedule: Q01DX005 (ip), vehicle: saline with Tween-80
[16] = dose: 200.0 mg/kg/injection, schedule: Q01DX005 (ip), vehicle: saline with Tween-80

Measured: T/C

COc1ccc(-c2sc(/N=C/c3cc(Br)cc(Br)c3O)c(C#N)c2C)cc1OC
inactive: dose: 12.5 mg/kg/injection, schedule: Q01DX009 (ip), vehicle: saline with Tween-80 103 % of control | [1] 97 % of control | [2] 99 % of control | [3] 94 % of control

NC(=O)NC(c1ccc(O)cc1)c1cc2c(cc1O)OCO2 (centres undefined)
inactive: dose: 60.0 mg/kg/injection, schedule: Q01DX005 (ip), vehicle: Klucel + Tween-80 86 % of control | dose: 120.0 mg/kg/injection, schedule: Q01DX005 (ip), vehicle: Klucel + Tween-80 86 % of control | dose: 240.0 mg/kg/injection, schedule: Q01DX005 (ip), vehicle: Klucel + Tween-80 86 % of control

O=C(n1ccnc1)C(F)(F)C(F)(F)F
inactive: [4] 95 % of control | [5] 101 % of control | [6] 96 % of control

Cc1cn(CCCn2cnc3c(N)ncnc32)c(=O)[nH]c1=O
inactive: [7] 95 % of control | [8] 98 % of control | [9] 107 % of control

CCOC(=N)Cc1ccccc1
inactive: [1] 103 % of control | [2] 94 % of control | [3] 101 % of control | [10] 100 % of control

O=c1cc(O)n(C2=NCCN2)[nH]1
inactive: dose: 60.0 mg/kg/injection, schedule: Q01DX005 (ip), vehicle: suspension in saline 97 % of control | dose: 120.0 mg/kg/injection, schedule: Q01DX005 (ip), vehicle: suspension in saline 97 % of control | dose: 240.0 mg/kg/injection, schedule: Q01DX005 (ip), vehicle: suspension in saline 105 % of control

NC(CCl)=NCC1C2CC3CC(C2)CC1C3 (centres undefined)
inactive: dose: 7.5 mg/kg/injection, schedule: Q01DX005 (ip), vehicle: saline with Tween-80 107 % of control and 116 % of control and 120 % of control | dose: 15.0 mg/kg/injection, schedule: Q01DX005 (ip), vehicle: saline with Tween-80 122 % of control | dose: 30.0 mg/kg/injection, schedule: Q01DX005 (ip), vehicle: saline with Tween-80 117 % of control

CCOC(=O)CC1(O)C=C(C)C(=O)C(C)=C1
inactive: dose: 3.13 mg/kg/injection, schedule: Q01DX009 (ip), vehicle: distilled water + Tween-80 100 % of control | dose: 6.25 mg/kg/injection, schedule: Q01DX009 (ip), vehicle: distilled water + Tween-80 109 % of control | dose: 12.5 mg/kg/injection, schedule: Q01DX009 (ip), vehicle: distilled water + Tween-80 103 % of control | dose: 25.0 mg/kg/injection, schedule: Q01DX009 (ip), vehicle: distilled water + Tween-80 98 % of control | dose: 50.0 mg/kg/injection, schedule: Q01DX009 (ip), vehicle: distilled water + Tween-80 107 % of control | dose: 100.0 mg/kg/injection, schedule: Q01DX009 (ip), vehicle: distilled water + Tween-80 99 % of control | dose: 200.0 mg/kg/injection, schedule: Q01DX009 (ip), vehicle: distilled water + Tween-80 112 % of control | dose: 400.0 mg/kg/injection, schedule: Q01DX009 (ip), vehicle: distilled water + Tween-80 108 % of control

Cc1ccc(S(=O)(=O)OC[C@H]2CCCC[C@H]2COS(=O)(=O)c2ccc(C)cc2)cc1
inactive: dose: 100.0 mg/kg/injection, schedule: Q04DX003 (ip), vehicle: Klucel (hydroxypropylcellulose) (HPC) 113 % of control | dose: 200.0 mg/kg/injection, schedule: Q04DX003 (ip), vehicle: Klucel (hydroxypropylcellulose) (HPC) 114 % of control | dose: 400.0 mg/kg/injection, schedule: Q04DX003 (ip), vehicle: Klucel (hydroxypropylcellulose) (HPC) 119 % of control

C[n+]1cccc(C2(O)CCCC2)c1
inactive: [2] 113 % of control | [3] 104 % of control | [10] 99 % of control

C(=NCc1ccccc1)c1ccccc1-c1ccccc1C=NCc1ccccc1
inactive: dose: 12.5 mg/kg/injection, schedule: Q01DX009 (ip), vehicle: Klucel (hydroxypropylcellulose) (HPC) 92 % of control | [11] 86 % of control | [12] 100 % of control

COC(=O)c1ccccc1SSCCN
inactive: dose: 12.5 mg/kg/injection, schedule: Q01DX005 (ip), vehicle: saline with Tween-80 100 % of control | dose: 25.0 mg/kg/injection, schedule: Q01DX005 (ip), vehicle: saline with Tween-80 106 % of control | [13] 101 % of control and 109 % of control

Nc1nc2c(-c3ccc([N+](=O)[O-])cc3)nnn2c2cccc(Cl)c12
inactive: [7] 98 % of control | [8] 99 % of control | [9] 97 % of control

OCC(O)Cn1cnc2c(NO)ncnc21 (centres undefined)
inactive: dose: 60.0 mg/kg/injection, schedule: Q01DX005 (ip), vehicle: Klucel (hydroxypropylcellulose) (HPC) 101 % of control | dose: 120.0 mg/kg/injection, schedule: Q01DX005 (ip), vehicle: Klucel (hydroxypropylcellulose) (HPC) 95 % of control | dose: 240.0 mg/kg/injection, schedule: Q01DX005 (ip), vehicle: Klucel (hydroxypropylcellulose) (HPC) 100 % of control

Nc1nncc(-c2ccccc2)n1
inactive: dose: 25.0 mg/kg/injection, schedule: Q01DX009 (ip), vehicle: Klucel (hydroxypropylcellulose) (HPC) 97 % of control | [11] 97 % of control | [12] 96 % of control | [14] 110 % of control

CCOC(=O)COc1ccc(C2=C(c3ccccc3)C(C)(C)Oc3cc(OC)ccc32)cc1[N+](=O)[O-]
inactive: [13] 97 % of control | [15] 93 % of control | [16] 86 % of control

BrCOCCCCOCBr
inactive: [4] 114 % of control | [5] 101 % of control | [6] 108 % of control

Oc1ccc(C2Oc3ccccc3C=C2c2ccccc2)cc1 (centres undefined)
inactive: [13] 94 % of control | [15] 89 % of control | [16] 96 % of control

NC(Cc1ccc(O)cc1)C(=O)OC1CCCCC1 (centres undefined)
inactive: dose: 25.0 mg/kg/injection, schedule: Q04DX003 (ip), vehicle: saline with Tween-80 107 % of control | dose: 50.0 mg/kg/injection, schedule: Q04DX003 (ip), vehicle: saline with Tween-80 110 % of control | dose: 100.0 mg/kg/injection, schedule: Q04DX003 (ip), vehicle: saline with Tween-80 100 % of control | dose: 200.0 mg/kg/injection, schedule: Q04DX003 (ip), vehicle: saline with Tween-80 96 % of control | dose: 400.0 mg/kg/injection, schedule: Q04DX003 (ip), vehicle: saline with Tween-80 95 % of control

CC1=C(C(=O)Nc2ccc(Cl)c(C(=O)OC(C)C)c2)SCCO1
inactive: dose: 100.0 mg/kg/injection, schedule: Q01DX001 (ip), vehicle: saline with Tween-80 96 % of control | dose: 200.0 mg/kg/injection, schedule: Q01DX001 (ip), vehicle: saline with Tween-80 92 % of control | dose: 400.0 mg/kg/injection, schedule: Q01DX001 (ip), vehicle: saline with Tween-80 87 % of control

CCOC1(NC(=O)N(C)C)C2CCCCC21 (centres undefined)
inactive: [11] 98 % of control | [12] 104 % of control | [14] 101 % of control

O=S1(=O)CCC2C1C1(Cl)C(Cl)=C(Cl)C2(Cl)C1(Cl)Cl (centres undefined)
inactive: dose: 6.25 mg/kg/injection, schedule: Q01DX009 (ip), vehicle: saline 100 % of control | dose: 12.5 mg/kg/injection, schedule: Q01DX009 (ip), vehicle: saline 100 % of control | dose: 25.0 mg/kg/injection, schedule: Q01DX009 (ip), vehicle: saline 100 % of control

Clc1ccccc1C(Nc1nc2ccccc2s1)Nc1nc2ccccc2s1
inactive: dose: 50.0 mg/kg/injection, schedule: Q01DX005 (ip), vehicle: Klucel (hydroxypropylcellulose) (HPC) 102 % of control | dose: 100.0 mg/kg/injection, schedule: Q01DX005 (ip), vehicle: Klucel (hydroxypropylcellulose) (HPC) 99 % of control | dose: 200.0 mg/kg/injection, schedule: Q01DX005 (ip), vehicle: Klucel (hydroxypropylcellulose) (HPC) 99 % of control
